In PubChem BioAssay (NCI):
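Each compound was tested at five concentrations against cells in 96-well plates for 48 hours. Here, GI50 denotes the concentration required for 50% inhibition of growth. At the TGI there is no net growth.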 Where a SMILES comes first, the peptide text is derived from it. [ ]: non-standard residue; d: D form. The star is where a group is joined. dTle = CC(C)(C)[C@@H](N)C(=O)O; 4Abz = Nc1ccc(C(=O)O)cc1; NHOH = ON*

Tests used:
Test in all cases: NCI tumour cell line growth inhibition, 48 h
M14 melanoma = test system: M14 melanoma
TK-10 renal = test system: TK-10 renal
NCI-H226 lung = test system: NCI-H226 lung
UACC-257 melanoma = test system: UACC-257 melanoma
MDA-MB-231 breast = test system: MDA-MB-231 breast
HT29 colon = test system: HT29 colon
OVCAR-5 ovarian = test system: OVCAR-5 ovarian
SNB-19 CNS = test system: SNB-19 CNS
SNB-75 CNS = test system: SNB-75 CNS
UO-31 renal = test system: UO-31 renal
IGROV1 ovarian = test system: IGROV1 ovarian
U251 CNS = test system: U251 CNS
MDA-MB-435 = test system: MDA-MB-435
COLO 205 colon = test system: COLO 205 colon
BT-549 breast = test system: BT-549 breast
OVCAR-8 ovarian = test system: OVCAR-8 ovarian
SF-295 CNS = test system: SF-295 CNS
MOLT-4 leukemia = test system: MOLT-4 leukemia
HCT-116 colon = test system: HCT-116 colon
ACHN renal = test system: ACHN renal
HOP-62 NSCLC = test system: HOP-62 NSCLC
LOX IMVI melanoma = test system: LOX IMVI melanoma
MCF7 breast = test system: MCF7 breast
HCC-2998 colon = test system: HCC-2998 colon
K-562 leukemia = test system: K-562 leukemia
NCI-H460 lung = test system: NCI-H460 lung
SK-MEL-5 melanoma = test system: SK-MEL-5 melanoma
786-0 renal = test system: 786-0 renal
NCI/ADR-RES ovarian = test system: NCI/ADR-RES ovarian
SK-MEL-28 melanoma = test system: SK-MEL-28 melanoma
NCI-H522 lung = test system: NCI-H522 lung
OVCAR-3 ovarian = test system: OVCAR-3 ovarian
HOP-92 NSCLC = test system: HOP-92 NSCLC
OVCAR-4 ovarian = test system: OVCAR-4 ovarian
SW-620 colon = test system: SW-620 colon
HS 578T breast = test system: HS 578T breast
SN12C renal = test system: SN12C renal
NCI-H23 lung = test system: NCI-H23 lung
T-47D breast = test system: T-47D breast
PC-3 prostate = test system: PC-3 prostate
MALME-3M melanoma = test system: MALME-3M melanoma
HCT-15 colon = test system: HCT-15 colon
UACC-62 melanoma = test system: UACC-62 melanoma
SF-268 CNS = test system: SF-268 CNS
KM12 colon = test system: KM12 colon
SK-MEL-2 melanoma = test system: SK-MEL-2 melanoma
A549 NSCLC = test system: A549 NSCLC
DU-145 prostate = test system: DU-145 prostate
EKVX NSCLC = test system: EKVX NSCLC
CAKI-1 renal = test system: CAKI-1 renal
A498 renal = test system: A498 renal
SF-539 CNS = test system: SF-539 CNS
SK-OV-3 ovarian = test system: SK-OV-3 ovarian

C[C@@H](NC(=O)[C@H](NC(=O)[C@@H]1CCCN1C(=O)CNC(=O)c1ccc(N)cc1)C(C)(C)C)C(=O)NO (H-[4Abz]GP[dTle][dA]-{NHOH})
GI50 (M14 melanoma): > 100 µM | TGI (M14 melanoma): > 100 µM | GI50 (TK-10 renal): > 100 µM | TGI (TK-10 renal): > 100 µM | GI50 (NCI-H226 lung): > 100 µM | TGI (NCI-H226 lung): > 100 µM | GI50 (UACC-257 melanoma): > 100 µM | TGI (UACC-257 melanoma): > 100 µM | GI50 (MDA-MB-231 breast): > 100 µM | TGI (MDA-MB-231 breast): > 100 µM | GI50 (HT29 colon): > 100 µM | TGI (HT29 colon): > 100 µM | GI50 (OVCAR-5 ovarian): > 100 µM | TGI (OVCAR-5 ovarian): > 100 µM | GI50 (SNB-19 CNS): > 100 µM | TGI (SNB-19 CNS): > 100 µM | GI50 (SNB-75 CNS): > 100 µM | TGI (SNB-75 CNS): > 100 µM | GI50 (UO-31 renal): > 100 µM | TGI (UO-31 renal): > 100 µM | GI50 (IGROV1 ovarian): > 100 µM | TGI (IGROV1 ovarian): > 100 µM | GI50 (U251 CNS): > 100 µM | TGI (U251 CNS): > 100 µM | GI50 (MDA-MB-435): > 100 µM | TGI (MDA-MB-435): > 100 µM | GI50 (COLO 205 colon): > 100 µM | TGI (COLO 205 colon): > 100 µM | GI50 (BT-549 breast): > 100 µM | TGI (BT-549 breast): > 100 µM | GI50 (OVCAR-8 ovarian): > 100 µM | TGI (OVCAR-8 ovarian): > 100 µM | GI50 (SF-295 CNS): > 100 µM | TGI (SF-295 CNS): > 100 µM | GI50 (MOLT-4 leukemia): > 100 µM | TGI (MOLT-4 leukemia): > 100 µM | GI50 (HCT-116 colon): > 100 µM | TGI (HCT-116 colon): > 100 µM | GI50 (ACHN renal): > 100 µM | TGI (ACHN renal): > 100 µM | GI50 (HOP-62 NSCLC): > 100 µM | TGI (HOP-62 NSCLC): > 100 µM | GI50 (LOX IMVI melanoma): > 100 µM | TGI (LOX IMVI melanoma): > 100 µM | GI50 (MCF7 breast): > 100 µM | TGI (MCF7 breast): > 100 µM | GI50 (HCC-2998 colon): > 100 µM | TGI (HCC-2998 colon): > 100 µM | GI50 (K-562 leukemia): > 100 µM | TGI (K-562 leukemia): > 100 µM | GI50 (NCI-H460 lung): > 100 µM | TGI (NCI-H460 lung): > 100 µM | GI50 (SK-MEL-5 melanoma): > 100 µM | TGI (SK-MEL-5 melanoma): > 100 µM | GI50 (786-0 renal): > 100 µM | TGI (786-0 renal): > 100 µM | GI50 (NCI/ADR-RES ovarian): > 100 µM | TGI (NCI/ADR-RES ovarian): > 100 µM | GI50 (SK-MEL-28 melanoma): > 100 µM | TGI (SK-MEL-28 melanoma): > 100 µM | GI50 (NCI-H522 lung): > 100 µM | TGI (NCI-H522 lung): > 100 µM | GI50 (OVCAR-3 ovarian): > 100 µM | TGI (OVCAR-3 ovarian): > 100 µM | GI50 (HOP-92 NSCLC): 5.76 µM | TGI (HOP-92 NSCLC): > 100 µM | GI50 (OVCAR-4 ovarian): > 100 µM | TGI (OVCAR-4 ovarian): > 100 µM | GI50 (SW-620 colon): > 100 µM | TGI (SW-620 colon): > 100 µM | GI50 (HS 578T breast): > 100 µM | TGI (HS 578T breast): > 100 µM | GI50 (SN12C renal): > 100 µM | TGI (SN12C renal): > 100 µM | GI50 (NCI-H23 lung): > 100 µM | TGI (NCI-H23 lung): > 100 µM | GI50 (T-47D breast): > 100 µM | TGI (T-47D breast): > 100 µM | GI50 (PC-3 prostate): > 100 µM | TGI (PC-3 prostate): > 100 µM | GI50 (MALME-3M melanoma): > 100 µM | TGI (MALME-3M melanoma): > 100 µM | GI50 (HCT-15 colon): > 100 µM | TGI (HCT-15 colon): > 100 µM | GI50 (UACC-62 melanoma): > 100 µM | TGI (UACC-62 melanoma): > 100 µM | GI50 (SF-268 CNS): > 100 µM | TGI (SF-268 CNS): > 100 µM | GI50 (KM12 colon): > 100 µM | TGI (KM12 colon): > 100 µM | GI50 (SK-MEL-2 melanoma): > 100 µM | TGI (SK-MEL-2 melanoma): > 100 µM | GI50 (A549 NSCLC): > 100 µM | TGI (A549 NSCLC): > 100 µM | GI50 (DU-145 prostate): > 100 µM | TGI (DU-145 prostate): > 100 µM | GI50 (EKVX NSCLC): > 100 µM | TGI (EKVX NSCLC): > 100 µM | GI50 (CAKI-1 renal): > 100 µM | TGI (CAKI-1 renal): > 100 µM | GI50 (A498 renal): > 100 µM | TGI (A498 renal): > 100 µM | GI50 (SF-539 CNS): > 100 µM | TGI (SF-539 CNS): > 100 µM | GI50 (SK-OV-3 ovarian): > 100 µM | TGI (SK-OV-3 ovarian): > 100 µM
